Results reported in patent publication US8158621B2, “Methods of treating or preventing autoimmune diseases with 2,4-pyrimidinediamine compounds” (Rigel Pharmaceuticals, Inc., priority 2002, dated 2012).

test system: cultured human mast cells (CHMC); assay: CHMC low cell density ionomycin activation: tryptase assay; type: cell-based; conditions: low cell density; read-out: CHMC Ionomycin Tryptase

`COc1ccc(Nc2nc(Nc3cccc(OCC(=O)NCCO)c3)ncc2F)cc1Cl` [Compound R926963] and `CNC(=O)COc1cccc(Nc2ncc(F)c(Nc3ccc(OCCO)c(Cl)c3)n2)c1` [Compound R927047] cannot be ordered by IC50: greater than 10000 nM for the first, greater than 10000 nM for the second.

`CNC(=O)COc1cccc(Nc2ncc(F)c(Nc3ccc(OCc4ccccc4)c(Cl)c3)n2)c1` [Compound R926966] and `CNC(=O)COc1cccc(Nc2ncc(F)c(Nc3ccc(OCC(=O)NC)c(Cl)c3)n2)c1` [Compound R927043] cannot be ordered by IC50: greater than 10000 nM for the first, greater than 10000 nM for the second.

`COc1ccc(Nc2nc(Nc3cccc(OCC(=O)NC4CC4)c3)ncc2F)cc1Cl` [Compound R926967] and `COc1ccc(Nc2nc(Nc3cccc(OCC(=O)NC4CCC4)c3)ncc2F)cc1Cl` [Compound R926969] cannot be ordered by IC50: greater than 10000 nM for the first, greater than 10000 nM for the second.

`COc1ccc(Nc2nc(Nc3cc(C)c(OC)c(Cl)c3)ncc2F)cc1Cl` [Compound R926972] and `COc1cc(Nc2ncc(F)c(Nc3ccc(OC)c(Cl)c3)n2)cc(OC)c1` [Compound R927066] cannot be ordered by IC50: greater than 10000 nM for the first, 15300 nM for the second.

Compared with `COc1ccc(Nc2nc(Nc3ccc4oc(CN(C)C)cc4c3)ncc2F)cc1Cl` [Compound R926978], `CN(C)Cc1cc2cc(Nc3ncc(F)c(Nc4ccc(Cl)c(Cl)c4)n3)ccc2o1` [Compound R926980] is 3.3-fold lower in IC50: 18000 nM for the first, 5490 nM for the second.

`CNC(=O)n1ccc2ccc(Nc3nc(Nc4cc(OC)cc(OC)c4)ncc3F)cc21` [Compound R926995] and `CNC(=O)n1ccc2ccc(Nc3ncc(F)c(Nc4ccc(OC)c(Cl)c4)n3)cc21` [Compound R927094] cannot be ordered by IC50: greater than 10000 nM for the first, greater than 10000 nM for the second.

First: COc1c(Cl)cc(Nc2ncc(F)c(Nc3ccc4c(c3)NC(=O)C(C)(C)O4)n2)cc1Cl [Compound R927056]
Second: COc1ccc(Nc2ncc(F)c(Nc3ccc4c(c3)NC(=O)C(C)(C)O4)n2)cc1Cl [Compound R927097]
The IC50 of the first is 1.9-fold higher: 1580 nM for the first, 847 nM for the second. The second is the more potent here.

`CC(C)Oc1ccc(Nc2nc(Nc3ccc4c(c3)C[C@H](C(=O)O[C@@H]3C[C@H](C)CC[C@H]3C(C)C)O4)ncc2F)cc1` [Compound R927062] and `CC(C)[C@@H]1CC[C@@H](C)C[C@H]1OC(=O)[C@H]1Cc2cc(Nc3ncc(F)c(Nc4ccc5c(c4)NC(=O)C(F)(F)O5)n3)ccc2O1` [Compound R927063] cannot be ordered by IC50: greater than 10000 nM for the first, greater than 10000 nM for the second.

Going from `COc1cc(Nc2ncc(F)c(Nc3ccc4c(c3)NC(=O)C(C)(C)O4)n2)cc(C(F)(F)F)c1` [Compound R927065] to `COc1cc(Nc2ncc(F)c(Nc3ccc4c(c3)NC(=O)C(C)(C)O4)n2)cc(OC)c1` [Compound R927074], the IC50 falls from greater than 10000 nM to 1380 nM.

`COc1cc(Nc2ncc(F)c(Nc3ccc(OC(F)(F)F)c(Cl)c3)n2)cc(OC)c1` [Compound R927067] and `COc1cc(Nc2ncc(F)c(Nc3ccc4cc[nH]c4c3)n2)cc(OC)c1` [Compound R927089] cannot be ordered by IC50: 22500 nM for the first, greater than 10000 nM for the second.

`Nc1cccc(Nc2nc(Nc3ccc(OC(F)(F)F)c(Cl)c3)ncc2F)n1` [Compound R927081] and `Fc1cnc(Nc2ccc(OC(F)(F)F)c(Cl)c2)nc1Nc1ccc2c(c1)OCCO2` [Compound R927085] cannot be ordered by IC50: greater than 10000 nM for the first, greater than 10000 nM for the second.

`COc1ccc(Nc2ncc(F)c(Nc3ccc4c(c3)OCCO4)n2)cc1Cl` [Compound R927084] and `Cc1cccc(C)c1Nc1ncc(F)c(Nc2ccc3c(c2)OCCO3)n1` [Compound R927086] cannot be ordered by IC50: greater than 10000 nM for the first, greater than 10000 nM for the second.

`Cc1cccc(C)c1Nc1ncc(F)c(Nc2ccc3cc[nH]c3c2)n1` [Compound R927088] and `COc1ccc(Nc2ncc(F)c(Nc3ccc4cc[nH]c4c3)n2)cc1Cl` [Compound R927091] cannot be ordered by IC50: greater than 10000 nM for the first, greater than 10000 nM for the second.

`CC(=O)Nc1cccc(Nc2nc(Nc3cc(C)cc(C)c3)ncc2F)n1` [Compound R927092] and `COc1cc(Nc2ncc(F)c(Nc3cccc(NC(C)=O)n3)n2)cc(OC)c1` [Compound R927096] cannot be ordered by IC50: greater than 10000 nM for the first, greater than 10000 nM for the second.

In the case of `CNC(=O)COc1cccc(Nc2ncc(F)c(Nc3cccc(NC(C)=O)n3)n2)c1` [Compound R927093], the IC50 is reported as greater than 10000 nM.

test system: cultured human mast cells (CHMC); assay: CHMC low cell density IgE activation: tryptase assay; type: cell-based; conditions: low cell density; read-out: CHMC anti-IgE Tryptase
Summary of the method: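 Low-density CHMC assay: donor-adjusted 1000-1500 cells/well, MT buffer, 1 hr 37° C preincubation; anti-IgE stimulus 30 min 37° C versus MT-only controls; supernatant tryptase by substrate, 30 min RT.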

`COc1ccc(Nc2nc(Nc3cccc(OCC(=O)NCCO)c3)ncc2F)cc1Cl` [Compound R926963] and `CNC(=O)COc1cccc(Nc2ncc(F)c(Nc3ccc(OCCO)c(Cl)c3)n2)c1` [Compound R927047] are within 1.5-fold of each other in IC50: 155 nM for the first, 168 nM for the second.

`CNC(=O)COc1cccc(Nc2ncc(F)c(Nc3ccc(OCc4ccccc4)c(Cl)c3)n2)c1` [Compound R926966] and `CNC(=O)COc1cccc(Nc2ncc(F)c(Nc3ccc(OCC(=O)NC)c(Cl)c3)n2)c1` [Compound R927043] are within 1.5-fold of each other in IC50: 539 nM for the first, 450 nM for the second.

`COc1ccc(Nc2nc(Nc3cccc(OCC(=O)NC4CC4)c3)ncc2F)cc1Cl` [Compound R926967] and `COc1ccc(Nc2nc(Nc3cccc(OCC(=O)NC4CCC4)c3)ncc2F)cc1Cl` [Compound R926969] are within 1.5-fold of each other in IC50: 259 nM for the first, 359 nM for the second.

Going from `COc1ccc(Nc2nc(Nc3cc(C)c(OC)c(Cl)c3)ncc2F)cc1Cl` [Compound R926972] to `COc1cc(Nc2ncc(F)c(Nc3ccc(OC)c(Cl)c3)n2)cc(OC)c1` [Compound R927066], the IC50 falls from 5290 nM to 283 nM (19-fold). The second is the more potent here.

`COc1ccc(Nc2nc(Nc3ccc4oc(CN(C)C)cc4c3)ncc2F)cc1Cl` [Compound R926978] and `CN(C)Cc1cc2cc(Nc3ncc(F)c(Nc4ccc(Cl)c(Cl)c4)n3)ccc2o1` [Compound R926980] are within 1.5-fold of each other in IC50: 995 nM for the first, 680 nM for the second.

Compared with `CNC(=O)n1ccc2ccc(Nc3nc(Nc4cc(OC)cc(OC)c4)ncc3F)cc21` [Compound R926995], `CNC(=O)n1ccc2ccc(Nc3ncc(F)c(Nc4ccc(OC)c(Cl)c4)n3)cc21` [Compound R927094] is higher in IC50: 9560 nM for the first, greater than 10000 nM for the second. The first is the more potent here.

`COc1c(Cl)cc(Nc2ncc(F)c(Nc3ccc4c(c3)NC(=O)C(C)(C)O4)n2)cc1Cl` [Compound R927056] and `COc1ccc(Nc2ncc(F)c(Nc3ccc4c(c3)NC(=O)C(C)(C)O4)n2)cc1Cl` [Compound R927097] are within 1.5-fold of each other in IC50: 144 nM for the first, 163 nM for the second.

Compared with `CC(C)Oc1ccc(Nc2nc(Nc3ccc4c(c3)C[C@H](C(=O)O[C@@H]3C[C@H](C)CC[C@H]3C(C)C)O4)ncc2F)cc1` [Compound R927062], `CC(C)[C@@H]1CC[C@@H](C)C[C@H]1OC(=O)[C@H]1Cc2cc(Nc3ncc(F)c(Nc4ccc5c(c4)NC(=O)C(F)(F)O5)n3)ccc2O1` [Compound R927063] is 18-fold lower in IC50: 15400 nM for the first, 849 nM for the second. The second is the more potent here.

Compared with `COc1cc(Nc2ncc(F)c(Nc3ccc4c(c3)NC(=O)C(C)(C)O4)n2)cc(C(F)(F)F)c1` [Compound R927065], `COc1cc(Nc2ncc(F)c(Nc3ccc4c(c3)NC(=O)C(C)(C)O4)n2)cc(OC)c1` [Compound R927074] is 3.3-fold lower in IC50: 235 nM for the first, 72 nM for the second. The second is the more potent here.

Going from `COc1cc(Nc2ncc(F)c(Nc3ccc(OC(F)(F)F)c(Cl)c3)n2)cc(OC)c1` [Compound R927067] to `COc1cc(Nc2ncc(F)c(Nc3ccc4cc[nH]c4c3)n2)cc(OC)c1` [Compound R927089], the IC50 falls from 625 nM to 144 nM (4.3-fold).

Going from `Nc1cccc(Nc2nc(Nc3ccc(OC(F)(F)F)c(Cl)c3)ncc2F)n1` [Compound R927081] to `Fc1cnc(Nc2ccc(OC(F)(F)F)c(Cl)c2)nc1Nc1ccc2c(c1)OCCO2` [Compound R927085], the IC50 rises from 2270 nM to 7430 nM (3.3-fold).

Compared with `COc1ccc(Nc2ncc(F)c(Nc3ccc4c(c3)OCCO4)n2)cc1Cl` [Compound R927084], `Cc1cccc(C)c1Nc1ncc(F)c(Nc2ccc3c(c2)OCCO3)n1` [Compound R927086] is 1.6-fold lower in IC50: 466 nM for the first, 286 nM for the second. The second is the more potent here.

First: Cc1cccc(C)c1Nc1ncc(F)c(Nc2ccc3cc[nH]c3c2)n1 [Compound R927088]
Second: COc1ccc(Nc2ncc(F)c(Nc3ccc4cc[nH]c4c3)n2)cc1Cl [Compound R927091]
The IC50 of the first is 2.3-fold lower: 117 nM for the first, 270 nM for the second. The first is the more potent here.

`CC(=O)Nc1cccc(Nc2nc(Nc3cc(C)cc(C)c3)ncc2F)n1` [Compound R927092] and `COc1cc(Nc2ncc(F)c(Nc3cccc(NC(C)=O)n3)n2)cc(OC)c1` [Compound R927096] are within 1.5-fold of each other in IC50: 377 nM for the first, 402 nM for the second.

For `CNC(=O)COc1cccc(Nc2ncc(F)c(Nc3cccc(NC(C)=O)n3)n2)c1` [Compound R927093], the IC50 was 303 nM.
